# From patent US20260285716A1, “METHODS TO REDUCE CONTAMINATION, BIOFILM, AND FOULING FROM WATER SYSTEMS AND SURFACES” (Aequor Inc., priority 2022, published 2026)
# System: Pseudomonas aeruginosa
# Assay type: cell-based
substance,measurement,value
butyl acid phosphate [BAP],MBEC (removal of 48-hr biofilm),≤47 ppm
